From patent US20230192618A1, “CRYSTALLINE SALT FORMS OF N-(4-(4-(CYCLOPROPYLMETHYL)PIPERAZINE-1-CARBONYL)PHENYL)QUINOLINE-8-SULFONAMIDE” (Agios Pharmaceuticals, Inc., priority 2019, published 2023)

Experiments:
[1] = Crystalline stability by XRPD after 7 days at 40° C./75% RH; assay type: physicochemical; settings: for Crystalline Stability (XRPD pattern): after 7 days at 40° C./75% RH
Source text: (§1) The Rigaku Smart-Lab X-ray diffraction system was configured for reflection Bragg- Brentano geometry using a line source X-ray beam. The x-ray source was a Cu Long Fine Focus tube that was operated at 40 kV and 44 ma. That source provided an incident beam profile at the sample that changes from a narrow line at high angles to a broad rectangle at low angles. Beam conditioning slits were used on the line X-ray source to ensure that the maximum beam size was less than 10 mm both along the line and normal to the line. The Bragg-Brentano geometry was a para-focusing geometry controlled by passive divergence and receiving slits with the sample itself acting as the focusing component for the optics. The inherent resolution of Bragg-Brentano geometry was governed in part by the diffractometer radius and the width of the receiving slit used. Typically, the Rigaku Smart-Lab was operated to give peak widths of 0.1 °2θ or less. The axial divergence of the X-ray beam was controlled by 5.0-degree Soller slits in both the incident and diffracted beam paths.
(§2) Powder samples were prepared in a low background Si holder using light manual pressure to keep the sample surfaces flat and level with the reference surface of the sample holder. Each sample was analyzed from 2 to 40 °2θ using a continuous scan of 6 °2θ per minute with an effective step size of 0.02 °2θ.
(§3) The chemical purity analyzed by HPLC and crystalline stability by XRPD for each of the crystalline salt Forms A to M prepared according to the procedures described in Examples 1-13 are summarized in Table 14. In short, these salt forms all yielded a chemical purity higher than 99%.

[2] = Crystalline stability by XRPD after heating (removal of volatiles); assay type: physicochemical
Source text: as §1, §2, §3

O=C(c1ccc(NS(=O)(=O)c2cccc3cccnc23)cc1)N1CCN(CC2CC2)CC1 [Form A]
crystalline stability by XRPD ([1]; 7 days at elevated temperature and relative humidity (e.g., 40° C./75% RH)): maintained their original forms | Crystalline Stability (XRPD pattern) ([1]; listed as Crystalline Besylate Salt FormA): no change in XRPD pattern after 7 days at 40° C./75% RH

O=C(c1ccc(NS(=O)(=O)c2cccc3cccnc23)cc1)N1CCN(CC2CC2)CC1 [Form B]
Crystalline Stability (XRPD pattern) ([1]; listed as Crystalline Fumarate Salt Form B): no change in XRPD pattern after 7 days at 40° C./75% RH or after heating to 120 °C (removal of volatiles) | Crystalline Stability (XRPD pattern) ([2]; after heating to 120° C. (removal of volatiles)): no change in XRPD pattern after 7 days at 40° C./75% RH or after heating to 120 °C (removal of volatiles)

O=C(c1ccc(NS(=O)(=O)c2cccc3cccnc23)cc1)N1CCN(CC2CC2)CC1 [Form C]
Crystalline Stability (XRPD pattern) ([1]; listed as Crystalline Fumarate Salt Form C): no change in XRPD pattern after 7 days at 40° C./75% RH

O=C(c1ccc(NS(=O)(=O)c2cccc3cccnc23)cc1)N1CCN(CC2CC2)CC1 [Form D]
Crystalline Stability (XRPD pattern) ([1]; listed as Crystalline Gentisate Salt Form D): no change in XRPD pattern after 7 days at 40° C./75% RH

O=C(c1ccc(NS(=O)(=O)c2cccc3cccnc23)cc1)N1CCN(CC2CC2)CC1 [Form E]
Crystalline Stability (XRPD pattern) ([1]; listed as Crystalline Gentisate Salt Form E): significant changes in XRPD pattern after 7 days at 40° C./75% RH

O=C(c1ccc(NS(=O)(=O)c2cccc3cccnc23)cc1)N1CCN(CC2CC2)CC1 [Form F]
Crystalline Stability (XRPD pattern) ([1]; listed as Crystalline Hydrochloride Salt Form F): no change in XRPD pattern after 7 days at 40° C./75% RH or after heating to 130 °C (removal of volatiles) | Crystalline Stability (XRPD pattern) ([2]; after heating to 130° C. (removal of volatiles)): no change in XRPD pattern after 7 days at 40° C./75% RH or after heating to 130 °C (removal of volatiles)

O=C(c1ccc(NS(=O)(=O)c2cccc3cccnc23)cc1)N1CCN(CC2CC2)CC1 [Form G]
Crystalline Stability (XRPD pattern) ([1]; listed as Crystalline Hydrochloride Salt Form G): unique XRPD pattern after 7 days at 40° C./75% RH

O=C(c1ccc(NS(=O)(=O)c2cccc3cccnc23)cc1)N1CCN(CC2CC2)CC1 [Form H]
Crystalline Stability (XRPD pattern) ([1]; listed as Crystalline Maleate Salt Form H): no change in XRPD pattern after 7 days at 40° C./75% RH

O=C(c1ccc(NS(=O)(=O)c2cccc3cccnc23)cc1)N1CCN(CC2CC2)CC1 [Form I]
Crystalline Stability (XRPD pattern) ([1]; listed as Crystalline Malonate Salt Form I): no change in XRPD pattern after 7 days at 40° C./75% RH

O=C(c1ccc(NS(=O)(=O)c2cccc3cccnc23)cc1)N1CCN(CC2CC2)CC1 [Form J]
Crystalline Stability (XRPD pattern) ([1]; listed as Crystalline Phosphate Salt Form J): additional peaks in XRPD pattern | Crystalline Stability (XRPD pattern) ([2]; after heating to 175° C. (removal of volatiles)): no change in XRPD pattern

O=C(c1ccc(NS(=O)(=O)c2cccc3cccnc23)cc1)N1CCN(CC2CC2)CC1 [Form K]
Crystalline Stability (XRPD pattern) ([1]; listed as Crystalline Phosphate Salt Form K): no change in XRPD pattern after 7 days at 40° C./75% RH

O=C(c1ccc(NS(=O)(=O)c2cccc3cccnc23)cc1)N1CCN(CC2CC2)CC1 [Form L]
Crystalline Stability (XRPD pattern) ([1]; listed as Crystalline Tartrate Salt Form L): unique XRPD pattern | Crystalline Stability (XRPD pattern) ([2]; after heating to 150° C. (removal of volatiles)): becomes non-crystalline

O=C(c1ccc(NS(=O)(=O)c2cccc3cccnc23)cc1)N1CCN(CC2CC2)CC1 [Form M]
Crystalline Stability (XRPD pattern) ([1]; listed as Crystalline Tosylate Salt Form M): no change in XRPD pattern after 7 days at 40° C./75% RH
